Source: patent EP3964204A1, “LSD1 INHIBITORS FOR USE IN THE TREATMENT AND PREVENTION OF FIBROSIS OF TISSUES” (Université d'Aix-Marseille, priority 2020, dated 2022)

Tests used:
LSD1 = target: T1, LSD1 (Mus musculus, UniProt Q6ZQ88); test: Cardiac LSD1 activity in explanted hearts at end of treatment (Epigentec kit); type: in vivo, mice; conditions: 1.5 mg / Kg intragastric gavage from 10 days after experimental infarction for three weeks, Figure 1
T1 construct: from tissue; host or cells: explanted hearts of C57BL/6 mice
Method: The LSD1 inhibitor (1.5 mg / Kg) was administered by intragastric gavage 10 days after experimental infarction and for three weeks. Losartan (5mg/kg) was also administered by oral gavage one week after experimental infarction and for three weeks,
The severity of the infarction was assessed by echocardiography 10 days after surgery. LSD1 activity was measured at the end of treatment (Epigentec kit) in explanted hearts. […] The ventricular wall has thickened when compared to the group treated with losartan Student -t-test ** p≤ 0.001 (Figure 2 B). Left ventricular function has improved. • 2- Ischemia -reperfusion model : transient ligation of descending anterior left coronary (30 min); followed by reperfusion

C57BL/6 adult mice [1] = test: Ischemia-reperfusion model (transient ligation of descending anterior left coronary 30 min, then reperfusion); type: in vivo
Method: Both groups were subjected to experimental infarction. A control group received no treatment. Two myocardial infraction models were used, respectively a permanent infarction model and an ischemia -reperfusion model. The LSD1 inhibitor (1.5 mg / Kg) was administered by intragastric gavage 10 days after experimental infarction and for three weeks. Losartan (5mg/kg) was also administered by oral gavage one week after experimental infarction and for three weeks, • 1: experimental infarctus : • 2.: 10 days later: control echo : pretreatment echo: • 3: posttreatment echo one month later The severity of the infarction was assessed by echocardiography 10 days after surgery. LSD1 activity was measured at the end of treatment ([…] kit) in explanted hearts. […] The ventricular wall has thickened when compared to the group treated with losartan Student -t-test ** p≤ 0.001 (Figure 2 B). Left ventricular function has improved. • 2- Ischemia -reperfusion model : transient ligation of descending anterior left coronary (30 min); followed by reperfusion The results were similar in the ischemia / reperfusion model. […] Student -t-test **p≤ 0.001 The shortening fraction (SF) is an index of contractile activity : the contraction of the walls of ventricle is responsible of the shortening of the distance between each wall. This is calculated by dividing the distance between the walls at diastole minus the distance between the walls at systole by the distance between the walls at diastole (in %) Shortening fraction x Volume of chamber = ejection fraction (% of the chamber volume emptied at each contraction)

C57BL/6 adult mice [2] = test: Permanent infarction model (permanent ligation of descending anterior left coronary, no reperfusion); type: in vivo
Method: Both groups were subjected to experimental infarction. A control group received no treatment. Two myocardial infraction models were used, respectively a permanent infarction model and an ischemia -reperfusion model. The LSD1 inhibitor (1.5 mg / Kg) was administered by intragastric gavage 10 days after experimental infarction and for three weeks. Losartan (5mg/kg) was also administered by oral gavage one week after experimental infarction and for three weeks, • 1: experimental infarctus : • 2.: 10 days later: control echo : pretreatment echo: • 3: posttreatment echo one month later The severity of the infarction was assessed by echocardiography 10 days after surgery. LSD1 activity was measured at the end of treatment ([…] kit) in explanted hearts. […] The ventricular wall has thickened when compared to the group treated with losartan Student -t-test ** p≤ 0.001 (Figure 2 B). Left ventricular function has improved. • 2- Ischemia -reperfusion model : transient ligation of descending anterior left coronary (30 min); followed by reperfusion

## Cl.Cl.c1ccc([C@@H]2C[C@H]2NC2CCNCC2)cc1 [GSK-LSD1, N-[(1R,2S)-2-phenylcyclopropyl]piperidin-4-amine dihydrochloride]
LSD1
  cardiac LSD1 activity: significantly reduced
C57BL/6 adult mice [1]; ischemia / reperfusion, 1.5 mg / Kg gavage, three weeks, compared with the non treated group, p≤ 0.001, Figure 3 A
  myocardial fibrosis area (LV): prevented fibrosis
C57BL/6 adult mice [1]; ischemia / reperfusion, M-mode echocardiography, compared to non-treated group and pretreatment, p≤ 0.001, Figure 3 B
  Left ventricular function: fully restored left ventricular function
C57BL/6 adult mice [1]; post administration, normal SF in healthy mice 60%, post infarct 20%
  shortening fraction (SF): 60%
C57BL/6 adult mice [2]; 1.5 mg / Kg gavage, three weeks
  Left ventricular function: has improved
C57BL/6 adult mice [2]; 1.5 mg / Kg gavage, three weeks, compared to the group treated with losartan, p≤ 0.001, Figure 2 B
  left ventricular wall thickness: has thickened
C57BL/6 adult mice [2]; 1.5 mg / Kg intragastric gavage from 10 days after infarction for three weeks, compared to Losartan (5mg/kg), Figure 2 A
  myocardial fibrosis area (left ventricle : LV): significantly reduced fibrosis
